The assay has as its target T1, human GPR119 (Homo sapiens, UniProt Q8TDV5).
T1 construct: expressed in transfected cells
T1 sequence (Q8TDV5 1-335): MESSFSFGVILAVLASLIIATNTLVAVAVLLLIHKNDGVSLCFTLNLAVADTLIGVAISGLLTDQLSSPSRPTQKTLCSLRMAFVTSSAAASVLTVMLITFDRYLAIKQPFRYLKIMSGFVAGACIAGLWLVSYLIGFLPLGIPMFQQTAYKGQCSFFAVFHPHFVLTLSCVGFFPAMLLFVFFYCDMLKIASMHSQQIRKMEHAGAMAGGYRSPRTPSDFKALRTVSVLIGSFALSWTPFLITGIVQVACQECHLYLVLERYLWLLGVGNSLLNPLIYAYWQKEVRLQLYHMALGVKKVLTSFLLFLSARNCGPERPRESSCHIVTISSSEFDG
The experiment in a line: Functional cellular assay measuring GPR119-mediated cAMP release (HTRF) in HEK-293 cells stably expressing recombinant GPR119. The settings on record: cell line expressing human GPR119, 30 minutes at room temperature. The assay is classed as cell-based. As to the method:
Functional Cellular Assays Measuring GPR119-mediated cAMP Release
Compounds of the present disclosure, which are agonists of GPR119, were characterized by functional assays measuring the cAMP response of HEK-293 cell lines stably expressing recombinant GPR119 from man, mouse or rat, or by using the hamster cell line HIT-T15 expressing GPR119 endogenously. The cAMP content was determined using a kit based on homogenous time-resolved fluorescence (HTRF) from Cisbio Corp. (cat. no. 62AM4PEC). For preparation, cells were split into T175 culture flasks and grown to near confluency in medium (DMEM/10% FCS for HEK-293 cells, and F-12K medium/10% horse serum/2.5% FCS for HIT-T15 cells, respectively). Medium was then removed and cells washed with PBS lacking calcium and magnesium ions, followed by proteinase treatment with accutase (Sigma-Aldrich, cat. no. A6964). Detached cells were washed and resuspended in assay buffer (1×HBSS; 20 mM HEPES, 0.1% BSA, 2 mM IBMX) and cellular density determined. They were then diluted to 400000 cells/mL and 25 μL-aliquots dispensed to the wells of 96-well plates. For measurement, 25 μL of test compound in assay buffer was added and incubated for 30 minutes at room temperature. After addition of HTRF reagents diluted in lysis buffer, the plates were incubated for 1 hour, followed by measuring the fluorescence ratio at 665 vs. 620 nm. Potency of the agonists was quantified by determining the concentrations that caused 50% of the maximal response/activation (EC50). See Table 6 for exemplary data obtained using the cell line expressing human GPR119.
As a reminder, the EC50 is the concentration needed to bring the measured effect to its halfway point. With `CC(C)N(C)C(=O)C1CN(c2ncc(N3CC[C@@H](Oc4ccc(OCC(F)(F)F)nc4)C3=O)cn2)C1` [Compound 4-20], the EC50 was 82 nM.
For `C[S+]([O-])C1CN(c2ncc(N3CC[C@@H](Oc4ccc(OCC(F)(F)F)nc4)C3=O)cn2)C1` (single isomer, unassigned) [Compound 1-25] the value was 292 nM; for `CN(C)C(=O)C1CN(c2ncc(N3CC[C@@H](Oc4ccc(C(=O)C5CC5(F)F)cc4)C3=O)cn2)C1` (stereo partly drawn) [Compound 2-10], 213 nM; for `CN(C)C(=O)C1CN(c2ncc(N3CC[C@@H](Oc4ccc(C(=O)C5CC5)c(F)c4)C3=O)cn2)C1` [Compound 2-07], 128 nM.
The figure for `CC(C)[S+]([O-])C1CN(c2ncc(N3CC[C@@H](Oc4ccc(OCC(F)(F)F)nc4)C3=O)cn2)C1` (stereo partly drawn) [Compound 1-51] is 93 nM.
For the compound `CN(C)C(=O)C1CN(c2ncc(N3CC[C@@H](Oc4ccc(Oc5ccc(F)cc5)nc4)C3=O)cc2C#N)C1` [Compound 1-08], the EC50 stood at 92 nM.
Consider `CN(C)C(=O)C1CN(c2ncc(N3CC[C@@H](Oc4ccc(C(=O)C5CC(F)(F)C5)cc4)C3=O)cn2)C1` [Compound 2-08], for which the EC50 was determined as 223 nM.
`C[S+]([O-])C1CN(c2ncc(N3CCC(Cc4ccc(OCC(F)(F)F)nc4)C3=O)cn2)C1` (single isomer, unassigned) [Compound 1-47]: the EC50 worked out at 1630 nM.
For the compound `CCNC(=O)C1CN(c2ncc(N3CC[C@@H](Oc4ccc(OCC(F)(F)F)nc4)C3=O)cn2)C1` [Compound 4-13], the EC50 turned out to be 244 nM.
For `CN(C)C(=O)C1CN(c2ncc(N3CC(C)(C)C(Oc4ccc(C(=O)C5CC5)nc4)C3=O)cn2)C1` (stereo not drawn) [Compound 1-49] the value was 1360 nM.
The figure for `COCC(=O)NC1CN(c2ncc(N3CC[C@@H](Oc4ccc(OCC(F)(F)F)nc4)C3=O)cn2)C1` [Compound 4-23] is 956 nM; for `O=C1[C@H](Oc2ccc(OCC3CC3)nc2)CCN1c1cnc(N2CC(O)C2)c(F)c1` [Compound 1-02] it is 206 nM.
For `CC(C)[S+]([O-])C1CN(c2ncc(N3CC[C@@H](Oc4ccc(C(=O)C5CC5)c(F)c4)C3=O)cn2)C1` (stereo partly drawn) [Compound 1-41] the value was 221 nM.
On to `CN(C)C(=O)C1CN(c2ncc(N3CC[C@@H](Oc4ccc(OCC(F)(F)F)nc4)C3=O)cn2)C1` [Compound 1-31], for which the EC50 stood at 129 nM.
Consider `CN(C)C(=O)C1CN(c2ncc(N3CCC(Cc4ccc(OCC(F)(F)F)nc4)C3=O)cn2)C1` (single isomer, unassigned) [Compound 1-42], for which the EC50 was 157 nM.
As to `CS(=O)(=O)C1CN(c2ncc(N3CC[C@@H](Oc4ccc(OCC(F)(F)F)nc4)C3=O)cn2)C1` [Compound 1-16], the EC50 is 58 nM.
Consider `O=C1[C@H](Oc2ccc(OCC(F)(F)F)nc2)CCN1c1cnc(N2CC(N3CCCC3=O)C2)nc1` [Compound 1-34], for which the EC50 is 369 nM.
For `CS(=O)(=O)C1CN(c2ncc(N3CC[C@H](Oc4ccc(OCC(F)(F)F)nc4)C3=O)cn2)C1` [Compound 1-50] the value was 321 nM; for `CNC(=O)C1CN(c2ccc(N3CC[C@@H](Oc4ccc(OCC(F)(F)F)nc4)C3=O)cn2)C1` [Compound 4-25], 88 nM.
The figure for `N#Cc1cc(N2CC[C@@H](Oc3ccc(OCC4CC4)nc3)C2=O)cnc1N1CC(O)C1` [Compound 1-01] is 57 nM.
In the case of `CC(=O)N1CCN(C(=O)C2CN(c3ncc(N4CC[C@@H](Oc5ccc(Oc6ccc(F)cc6)nc5)C4=O)cn3)C2)CC1` [Compound 4-08], the EC50 amounted to 1280 nM.
In the case of `O=C(O)C1CN(c2ccc(N3CC[C@@H](Oc4ccc(OCC5CC5)nc4)C3=O)cn2)C1` [Compound 3-03], the EC50 was found to be 6050 nM.
On to `CN(C)C(=O)C1CN(c2ncc(N3CC[C@@H](Oc4ccc(C(=O)CCC(F)(F)F)cc4)C3=O)cn2)C1` [Compound 2-09], for which the EC50 worked out at 123 nM.
For `C[S+]([O-])C1CN(c2ncc(N3CC[C@@H](Oc4ccc(C(=O)C5CC5)c(F)c4)C3=O)cn2)C1` (stereo partly drawn) [Compound 1-40] the value was 1820 nM.

The record behind these values is patent US10392366B2, “Azetidine compounds as GPR119 modulators for the treatment of diabetes, obesity, dyslipidemia and related disorders” (SANOFI, priority 2017, dated 2019).
